Laboratory results from patent US4681877A, “Pivaloyloxymethyl 7-β-[2-(2-amino-4-thiazolyl)-2-methoxyiminoacetamido]-3-(2-amino-1, 3-thiadiazolyl-5-thiomethyl)-3-cepheme-4-carboxylate and pharmaceutical composition containing the same” (Kureha Kagaku Kogyo Kabushiki Kaisha, priority 1982, dated 1987).
Like-named read-outs stand apart in the source and are kept apart here.

What was measured:
E. coli W 3636 = assay: Minimum growth-inhibition concentration (MIC), E. coli W 3636; assay type: cell-based, Escherichia coli; details: Mueller-Hinton agar, 18 to 24 hours at 37° C.
Experimental: (§1) The minimum inhibiting concentration(MIC) of the compound represented by the formula(I) and the compound represented by the formula(V) was measured according to the standard method of Japan Society of Chemotherapy against each of the following bacterial species:
(§2) Anti-bacterial activity of the compounds respectively produced in Examples 1, 2 and 3 was determined according to the standard method of Japanese Society of Chemotherapy as follows.
(§3) Each of the following bacterial strains was inoculated in Mueller-Hinton's culture medium and cultured for 18 to 48 hours at 37° C. to obtain a standard bacterial liquid containing 10^6 cells/ml.
(§4) Separately, agar plates were prepared by adding each of the solutions of each of the compounds respectively produced in Examples, 1, 2 and 3 at predetermined concentrations in amount of one ninth by weight to Mueller-Hinton's culture medium.

[1] = system: Proteus vulgaris IAM 1025; assay: Minimum growth-inhibition concentration (MIC), Proteus vulgaris IAM 1025; assay type: cell-based; details: Mueller-Hinton agar, 18 to 24 hours at 37° C.
Experimental: as §1, §2, §3, §4

[2] = system: Staphylococcus aureus IAM 1011; assay: Minimum growth-inhibition concentration (MIC), Staphylococcus aureus IAM 1011; assay type: cell-based; details: Mueller-Hinton agar, 18 to 24 hours at 37° C.
Experimental: as §1, §2, §3, §4

E. coli IFO 12734 = assay: Minimum growth-inhibition concentration (MIC), E. coli IFO 12734; assay type: cell-based, Escherichia coli; details: Mueller-Hinton agar, 18 to 24 hours at 37° C.
Experimental: as §1, §2, §3, §4

[3] = system: Pseudomonas aeruginosa IAM 1514; assay: Minimum growth-inhibition concentration (MIC), Pseudomonas aeruginosa IAM 1514; assay type: cell-based; details: Mueller-Hinton agar, 18 to 24 hours at 37° C.
Experimental: as §1, §2, §3, §4

[4] = Stability to rat liver homogenate (S-9 mix): rate of maintaining the antibacterial activity; assay type: in vitro ADME; details: for remaining at 20 min: rat
Experimental: For verifying the stability of the compound represented by the formula (I), 7-beta-[2-(2-amino-4-thiazolyl)-2-methoxyiminoacetamindo]-3-(-2-amino-1,3,4-thiadiazoyl-5-thiomethyl)-3-cepheme -4-carboxyulic acid in living body of the host, the following model experiment was carried out.
(§5) As a metabolism-activating enzyme, a rat liver homogenate (S-9, manufactured by Oriental Yeast Co.) was used in the following composition(referred to as S-9 mix, hereinafter):
(§6) After mixing 0.1 ml of a solution of the compound to be tested with 0.9 ml of S-9 mix or 0.9 ml of 0.1 M phosphoric acid buffer solution, the mixture was subjected to shaking culture for 20 min at 37° C. to prepare a test reaction solution for use in the following experiment.
(§7) Staphylococcus aureus IAM 1011 was inoculated to Mueller-Hinton'culture medium and the inoculum was cultured for 18 hours at 37° C. and after adjusting the number of the bacterial cells to 10^8 /ml of the culture medium, 50 times by weight of the Mueller-Hinton agar culture medium were added to the cultured medium to prepare flat culture plates. After placing a penicillin-cup of 8 mm in diameter on each of the thus prepared flat culture plates, 0.1 ml of the above-mentioned test reaction solution was introduced into the penicillin cup, and after leaving the system for 2 hours at 4° C., the system was incubated for 18 hours at 37° C., and the diameter of the growth-inhibition circle around the cup on the culture plate was determined.
By applying each of the thus determined diameters of the respective growth-inhibition circles on a diagram preliminarily prepared to indicate the relationship between the diameter of the growth-inhibition circle and the concentration of the compound in the culture medium before carrying out the culture, the concentration of the compound in the culture medium in the presence of S-9 mix was obtained(referred to as C2). […]

[5] = Stability in blood of living body: serum concentration after injection; assay type: in vivo, male Wistar rats; details: rat, iv, caudal vein, Wistar rats, read-out: Concentration in the serum specimen
Experimental: A solution of sodium salt (the product in Example 2) of the compound represented by the formula(I) in an aqueous physiological solution was injected into each of 5 healthy male Wistar rats (body weight of about 180 g) after 6 to 7 weeks of birth from the caudal vein by one shot method. The same procedure was carried out by using a solution of the sodium salt in a 1/15 M phosphoric acid buffer of pH of 7.0. After 30 min, 2 hours and 4 hours of the injection, the blood of the rate was collected from the cut carotid artery of the rat, and the collected blood was subjected to centrifugation for 15 min at 3000 rpm to obtain the three kinds of serum specimens (collected after 30 min, 2 hours and 4 hours after the injection).
Separately, flat culture plates were made by adding 0.05 % by weight of Escherichia coli IFO 12734 into Heart-infusion agar culture medium, and a penicillin cup of 8 mm in diameter was placed on the flat culture medium, and each of the serum specimen, each of the blood specimen, 1/15 M phosphoric acid buffer solution or a 50% acetone-phosphoric acid buffer solution was introduced into the cup. The thus prepared inoculant was left for 30 min to 1 hour at room temperature and incubated for a night at 37° C.
Then, the diameter of the growth-inhibition circle around the penicillin cup on each flat culture plate was determined, and according to the preliminarily prepared graph showing the relationship between the diameter of the growth-inhibition circle and the concentration of the sodium salt in the serum specimen, the blood specimen, 1/15 M phosphoric acid buffer solution and 50% acetone-phosphoric acid buffer solution, the concentration of the sodium salt in the serum specimen was obtained as: […]

[6] = system: Serratia marcescens IAM 1223; assay: Minimum growth-inhibition concentration (MIC), Serratia marcescens IAM 1223; assay type: cell-based; details: Mueller-Hinton agar, 18 to 24 hours at 37° C.
Experimental: as §1, §2, §3, §4

Escherichia coli IFO = assay: Effects on infectious disease (mice infected with Escherichia coli IFO); assay type: in vivo; details: orally 100 mg/kg just after and 4 hours after inoculation; 7 days
Experimental: After inoculating a group consisting of 20 mice with Escherichia coli IFO intraperitoneously to be infected, the compound represented by the formula(V) was orally administered to the mice just after and after 4 hours of inoculation at a dose rate of 100 mg/kg body weight, and after 7 days of the administration, the effectiveness of the compound was judged by observing the death rate of each group of mice by the infection.
In the same manner, after inoculating another group consisting of 20 mice with Escherichia coli IFO intraperitoneously to be infected, the compound represented by the formula(I) was orally administered thereto just after and after 4 hours of inoculation at the dose rate of 100 mg/kg body weight, and after 7 days of the administration, the effectiveness of the compound was judged by observing the rate of survival of the mice.

ICR-JCL mice = assay: Acute mammalian toxicity (LD50, 7-day mortality); assay type: in vivo; details: autopsy after 7 days, dead and live mice
Experimental: (§8) Acute mammalian toxicity of the compound represented by the formula(I) and the compound represented by the formula(V) was investigated by orally or intraperitoneally administering a series of aqueous physiological saline solution containing each of the above-mentioned compounds to groups of ICR-JCL mice, and observing the toxic symptoms appearing on the mice including the mortality for 7 days. Then, from the cumulative mortality, LD50 values were calculated by Litchfield-Wilcoxon's graphical method.

[7] = Acute mammalian toxicity (LD50, 7-day mortality); assay type: in vivo; details: mouse, in vivo
Experimental: as §8

Escherichia coli [8] = assay: Effect on the experimental infectious disease on mice; assay type: in vivo, Escherichia coli; ddY-strain SPF mice; details: orally 100 mg/kg, ddY-strain SPF mice, 1.4×10^8 cells E. coli i.p.
Experimental: To each of the two groups of ddY-strain SPF mice, 1.4×10^8 cells of Escherichia coli was intraperitoneously inoculated to be infected, and just after or after 4 hours of the inoculation, the compound represented by the formula (I) was orally administered at a dose rate of 100 mg/kg.

test bacterial species = assay: Anti-bacterial activity (MIC) in general, all test species; assay type: cell-based; details: against the test bacterial species
Experimental: as §1
Escherichia coli IFO 12734
Staphylococcus aureus IAM 1011
Proteus vulgaris IAM 1025
Pseudomonas aeruginosa IAM 1514 and
Serratia marcescens IAM 1223

Escherichia coli [9] = assay: Activity against Escherichia coli before and after metabolism by rat liver homogenate; assay type: cell-based
Experimental: The same test as above was carried on the compound represented by the formula(V). The results obtained were compared to the results of the test (1) on the compound represented by the formula(I) according to the following criterion.
Taking the diameter of the growth-inhibiting circle due to the compound represented by the formula(I) at the same concentration as 100, and the ratio of the diameter of the growth-inhibiting circle due to the compound represented by the fomula(V) to the diameter of the growth-inhibiting circle due to the compound represented by the formula(I) is represented by the percentages as follows, and the respective signs are attributed to the respective percentage.

Streptococcus sp. = system: Streptococcus sp.; set-up: species or system Streptococcus sp.; female ICR mice; details: mouse, in vivo, po, 100 mg/kg
Experimental: (§9) The above-mentioned pivaloyloxymethyl ester represented by the formula(V) was orally administered for two continued days at a daily dosage of 100 mg/kg body weight to each of five female ICR mice of a group after 6 weeks of birth. Each of the two fecal specimens respectively collected before and after one day of the administration was diluted with 100 times by weight of an anaerobic diluent(a phosphoric buffer solution) and was ground in a mortar, and 0.1 ml of the ground material was smeared on each of the following culture media for the following bacteria and the thus inoculated culture media were incubated under the following conditions. Thereafter, the number of the following bacteria was determined on each culture medium.

Bacterioides sp. = system: Bacterioides sp.; set-up: species or system Bacterioides sp.; female ICR mice; details: mouse, in vivo, po, 100 mg/kg
Experimental: as §9

Lactobacillus bifidus = system: Lactobacillus bifidus; set-up: species or system Lactobacillus bifidus; female ICR mice; details: mouse, in vivo, po, 100 mg/kg
Experimental: as §9

[10] = system: Staphylococcus aureus IAM 1011; assay: Stability of the compound of formula (V): growth-inhibiting circle with/without S-9 mix; assay type: cell-based; details: formula (I) = 100
Experimental: as §5, §6, §7
The same test as above was carried on the compound represented by the formula(V). […]

Pseudomonas aeruginosa = system: Pseudomonas aeruginosa; set-up: species or system Pseudomonas aeruginosa; female ICR mice; details: mouse, in vivo, po, 100 mg/kg
Experimental: as §9

Escherichia coli [11] = assay: Number of bacterial cells in feces, E. coli; assay type: in vivo, Escherichia coli; female ICR mice; details: after 2 days oral 100 mg/kg; before: 6.4
Experimental: as §9

Lactobacillus sp. = system: Lactobacillus sp.; set-up: species or system Lactobacillus sp.; female ICR mice; details: mouse, in vivo, po, 100 mg/kg
Experimental: as §9

[12] = ip, read-out: LD50 (intraperitoneous)

Structure (SMILES) | Minimum growth-inhibition concentration (MIC) on E. coli W 3636 (E. coli W 3636) | Minimum growth-inhibition concentration (MIC) on Proteus vulgaris IAM 1025 [1] | Minimum growth-inhibition concentration (MIC) on Staphylococcus aureus IAM 1011 [2] | Minimum growth-inhibition concentration (MIC) on E. coli IFO 12734 (E. coli IFO 12734) | Minimum growth-inhibition concentration (MIC) on Pseudomonas aeruginosa IAM 1514 [3] | Minimum growth-inhibition concentration (MIC) on Serratia marcescens IAM 1223 [6] | Rate of survival (Escherichia coli IFO) | Autopsy findings (ICR-JCL mice) | LD50 at 168 h [7, 12] [mg/kg] | LD50 at 168 h ([7]; po, read-out: LD50 (oral)) [mg/kg] | Anti-bacterial activity (MIC), in words (test bacterial species) | further results
CO/N=C(\C(=O)N[C@@H]1C(=O)N2C(C(=O)O)=C(COC(C)=O)CS[C@H]12)c1csc(N)n1 [CEFOTAX ®, reference compound] | 0.1 | < 0.05 | 1.56 | < 0.05 | 50 | 0.2 | – | – | – | – | – | remaining at 20 min ([4]; s9): 17%; concentration at 0.5 h ([5]; 30 min after injection): 7000 ng/mL; concentration at 2 h ([5]; 2 hours after injection): 2500 ng/mL; concentration at 4 h ([5]; 4 hours after injection): 400 ng/mL
CON=C(C(=O)N[C@@H]1C(=O)N2C(C(=O)O)=C(CSc3nnc(N)s3)CS[C@H]12)c1csc(N)n1 [Example 1, 7-beta-[2-(2-amino-4-thiazolyl)-2-methoxyiminoacetamido]-3-(2-amino-1,3,4-thiadiazolyl-5-thiomethyl)-3-cepheme-4-carboxylic acid] | 0.2 | < 0.05 | 0.78 | < 0.05 | 12.5 | 0.2 | over 55% | No noticeable information | > 10000 | > 10000 | strong and broad anti-bacterial activity | Survival on the 7th day of infection (Escherichia coli [8]): more than 55%; Stability to the action of rat liver homogenate, in words ([4]; S-9 mix): stable; remaining at 20 min ([4]; liver homogenate s-9 mix, S-9 mix, 20 min at 37° C., read-out: Rate of maintaining the antibacterial activity): 80%
CON=C(C(=O)N[C@@H]1C(=O)N2C(C(=O)OCOC(=O)C(C)(C)C)=C(CSc3nnc(N)s3)CS[C@H]12)c1csc(N)n1 [Example 3, pivaloyloxymethyl 7-beta-[2-(2-amino-4-thiazolyl) -2-methoxyiminoacetamido]-3-(2-amino-1,3,4,-thiadiazolyl-5-thiomethyl)-3-cepheme-4-carboxylate] | 50 | 12.5 | ≥ 100 | 12.5 | ≥ 100 | ≥ 100 | over 60% | No noticeable information | > 10000 | > 10000 | not so small to verify the anti-bacterial activity | Activity against Escherichia coli, in words (Escherichia coli [9]; after metabolized by the rat liver homogenate): active; Activity to Escherichia coli, in words (Escherichia coli [9]; compound itself, without S-9 mix): inactive; log10 value of the number of bacterial cells/g of feces, Streptococcus sp. (Streptococcus sp.): 7.0 log10 of bacterial cells/g of; log10 value of the number of bacterial cells/g of feces, Bacterioides sp. (Bacterioides sp.): 8.2 log10 of bacterial cells/g of; log10 value of the number of bacterial cells/g of feces, Lact. bifidus (Lactobacillus bifidus): 8.4 log10 of bacterial cells/g of; Ratio of diameter of growth-inhibiting circle to that of formula (I), sign ([10]; added with S-9 mix): +++ (67 to 100); Ratio of diameter of growth-inhibiting circle to that of formula (I), sign ([10]; without addition of S-9 mix): ± (0 to 1); log10 value of the number of bacterial cells/g of feces, Pse. aeruginosa (Pseudomonas aeruginosa): < 3.0 log10 of bacterial cells/g of; log10 value of the number of bacterial cells/g of feces, E. coli (Escherichia coli [11]): 6.5 log10 of bacterial cells/g of; log10 value of the number of bacterial cells/g of feces, Lactobacillus sp. (Lactobacillus sp.): 8.9 log10 of bacterial cells/g of
